US5099015A, “Trifluoromethyl 1-carba(1-dethia)cephems” (Eli Lilly and Company, priority 1991, dated 1992)
In brackets after ≈: the same amount, converted by molar mass. Read-outs that look alike come from different tables or passages of the source.

Tests used:
Assay in all cases: Agar dilution antibacterial test (MIC)
Assay type in all cases: cell-based
Citro CF17 = tested on: Citro CF17
Protocol: (§1) Fresh overnight cultures of test bacteria were diluted to approximately 1x(10)4 cells/microliter and applied in one microliter volumes to the surfaces of the agar plates. The innoculated plates were incubated overnight at 35° C. in ambient air. Minimum inhibitory concentration (mic) endpoints were recorded as the lowest antibiotic concentrations in micrograms per milliliter that inhibited the development of visible growth on the plates. The following summarizes the results of such tests with the compounds of the examples listed above.

[1] = tested on: Enterobacter aerogenes C32
Protocol: as §1

[2] = tested on: Enterobacter aerogenes EB17
Protocol: as §1

[3] = tested on: Enterobacter cloacae 265A
Protocol: as §1

Enterobacter cloacae EB5 = tested on: Enterobacter cloacae EB5
Protocol: as §1

[4] = tested on: Enterococcus faecalis 2041
Protocol: as §1

Enterococcus faecium X66 = tested on: Enterococcus faecium X66
Protocol: as §1

Escherichia coli EC14 = tested on: Escherichia coli EC14
Protocol: as §1

Escherichia coli N10 = tested on: Escherichia coli N10
Protocol: as §1

Escherichia coli TEM = tested on: Escherichia coli TEM
Protocol: as §1

[5] = tested on: Haemophilus influenzae 76
Protocol: as §1

[6] = tested on: Haemophilus influenzae C.L.
Protocol: as §1

[7] = tested on: Klebsiella pneumoniae KAE
Protocol: as §1

[8] = tested on: Klebsiella pneumoniae X26
Protocol: as §1

[9] = tested on: Klebsiella pneumoniae X68
Protocol: as §1

Morg morg PR15 = tested on: Morg morg PR15
Protocol: as §1

Proteus incon PR33 = tested on: Proteus incon PR33
Protocol: as §1

Proteus rett C24 = tested on: Proteus rett C24
Protocol: as §1

Salmonella 1335 = tested on: Salmonella 1335
Protocol: as §1

Salmonella X514 = tested on: Salmonella X514
Protocol: as §1

Serratia SE3 = tested on: Serratia SE3
Protocol: as §1

Serratia X99 = tested on: Serratia X99
Protocol: as §1

Shig sonn. N9 = details: read-out: MIC
Protocol: as §1

[10] = tested on: Staphylococcus aureus NRRL X1.1
Protocol: as §1

[11] = tested on: Staphylococcus aureus S13E
Protocol: as §1

[12] = tested on: Staphylococcus aureus V41
Protocol: as §1

[13] = tested on: Staphylococcus aureus X400
Protocol: as §1

[14] = tested on: Staphylococcus epidermidis 222
Protocol: as §1

[15] = tested on: Staphylococcus epidermidis EPI270
Protocol: as §1

[16] = tested on: Staphylococcus pneumoniae Park 1
Protocol: as §1

[17] = tested on: Staphylococcus pyogenes C203
Protocol: as §1

Acom AC12 = tested on: Acom AC12
Protocol: as §1

[18] = Klebsiella aerogenes, read-out: MIC

N[C@@H](C(=O)N[C@@H]1C(=O)N2C(C(=O)O)=C(C(F)(F)F)CC[C@H]12)c1ccccc1 [Compound 1, 7β-[D-α-(amino)phenylacetylamino]-3-trifluoromethyl-1-carba-(1-dethia)-3-cephem-4-carboxyl ic acid]
MIC (Citro CF17; read-out: MIC): 8 µg/mL (≈ 20.9 µM) | MIC [1, 18]: 4 µg/mL (≈ 10.4 µM) | MIC [2, 18]: 4 µg/mL (≈ 10.4 µM) | MIC ([3]; read-out: MIC): 16 µg/mL (≈ 41.7 µM) | MIC (Enterobacter cloacae EB5; read-out: MIC): 8 µg/mL (≈ 20.9 µM) | MIC ([4]; read-out: MIC): 16 µg/mL (≈ 41.7 µM) | MIC (Enterococcus faecium X66; read-out: MIC): 32 µg/mL (≈ 83.5 µM) | MIC (Escherichia coli EC14; read-out: MIC): 0.5 µg/mL (≈ 1.3 µM) | MIC (Escherichia coli N10; read-out: MIC): 2 µg/mL (≈ 5.22 µM) | MIC (Escherichia coli TEM; read-out: MIC): 0.5 µg/mL (≈ 1.3 µM) | MIC ([5]; read-out: MIC): 1 µg/mL (≈ 2.61 µM) | MIC ([6]; read-out: MIC): 0.5 µg/mL (≈ 1.3 µM) | MIC ([7]; read-out: MIC): 8 µg/mL (≈ 20.9 µM) | MIC ([8]; read-out: MIC): 0.25 µg/mL (≈ 0.652 µM) | MIC ([9]; read-out: MIC): 0.5 µg/mL (≈ 1.3 µM) | MIC (Morg morg PR15; read-out: MIC): 32 µg/mL (≈ 83.5 µM) | MIC (Proteus incon PR33; read-out: MIC): 16 µg/mL (≈ 41.7 µM) | MIC (Proteus rett C24; Proteus rett C24, read-out: MIC): 8 µg/mL (≈ 20.9 µM) | MIC (Salmonella 1335; read-out: MIC): 1 µg/mL (≈ 2.61 µM) | MIC (Salmonella X514; read-out: MIC): 0.25 µg/mL (≈ 0.652 µM) | MIC (Serratia SE3; read-out: MIC): 32 µg/mL (≈ 83.5 µM) | MIC (Serratia X99; read-out: MIC): 8 µg/mL (≈ 20.9 µM) | MIC (Shig sonn. N9): 1 µg/mL (≈ 2.61 µM) | MIC ([10]; NRRLX1.1, read-out: MIC): 2 µg/mL (≈ 5.22 µM) | MIC [11]: 32 µg/mL (≈ 83.5 µM) | MIC ([12]; read-out: MIC): 16 µg/mL (≈ 41.7 µM) | MIC ([13]; read-out: MIC): 64 µg/mL (≈ 167 µM) | MIC ([14]; read-out: MIC): 4 µg/mL (≈ 10.4 µM) | MIC ([15]; read-out: MIC): 4 µg/mL (≈ 10.4 µM) | MIC ([16]; PARK1, read-out: MIC): 0.125 µg/mL (≈ 0.326 µM) | MIC ([17]; read-out: MIC): 0.06 µg/mL (≈ 0.157 µM)

NC(C(=O)N[C@@H]1C(=O)N2C(C(=O)O)=C(C(F)(F)F)CC[C@H]12)c1cccc(C(F)(F)F)c1 (stereo partly drawn) [Compound 9, [6R,7S]-7-β-[D-α-(amino)-3-trifluoromethylphenylacetylamino]-3-trifluoromethyl-1-carba-1-carba-1-dethia3-cephem-4-carboxylic acid]
MIC (Acom AC12): 32 µg/mL (≈ 70.9 µM) | MIC (Citro CF17): 128 µg/mL (≈ 284 µM) | MIC [1]: 128 µg/mL (≈ 284 µM) | MIC [2]: 128 µg/mL (≈ 284 µM) | MIC [3]: 128 µg/mL (≈ 284 µM) | MIC (Enterobacter cloacae EB5): 4 µg/mL (≈ 8.86 µM) | MIC [4]: 16 µg/mL (≈ 35.5 µM) | MIC (Enterococcus faecium X66): 32 µg/mL (≈ 70.9 µM) | MIC (Escherichia coli EC14): 8 µg/mL (≈ 17.7 µM) | MIC (Escherichia coli N10): 32 µg/mL (≈ 70.9 µM) | MIC (Escherichia coli TEM): 16 µg/mL (≈ 35.5 µM) | MIC [5]: 1 µg/mL (≈ 2.22 µM) | MIC [6]: 1 µg/mL (≈ 2.22 µM) | MIC [7]: 64 µg/mL (≈ 142 µM) | MIC [8]: 1 µg/mL (≈ 2.22 µM) | MIC [9]: 16 µg/mL (≈ 35.5 µM) | MIC (Morg morg PR15): 32 µg/mL (≈ 70.9 µM) | MIC (Proteus incon PR33): 32 µg/mL (≈ 70.9 µM) | MIC (Proteus rett C24; Proteus rett C24): 64 µg/mL (≈ 142 µM) | MIC (Salmonella 1335): 64 µg/mL (≈ 142 µM) | MIC (Salmonella X514): 32 µg/mL (≈ 70.9 µM) | MIC (Serratia SE3): > 128 µg/mL | MIC (Serratia X99): 128 µg/mL (≈ 284 µM) | MIC [10]: 2 µg/mL (≈ 4.43 µM) | MIC [11]: 16 µg/mL (≈ 35.5 µM) | MIC [12]: 4 µg/mL (≈ 8.86 µM) | MIC [13]: 16 µg/mL (≈ 35.5 µM) | MIC [14]: 1 µg/mL (≈ 2.22 µM) | MIC [15]: 4 µg/mL (≈ 8.86 µM) | MIC [16]: .125 µg/mL (≈ 0.277 µM) | MIC [17]: 6 µg/mL (≈ 13.3 µM)

N[C@@H](C(=O)N[C@@H]1C(=O)N2C(C(=O)O)=C(C(F)(F)F)CC[C@H]12)c1cccc(Br)c1 [Compound 7]
MIC (Citro CF17; read-out: MIC): 32 µg/mL (≈ 69.2 µM) | MIC [1, 18]: 16 µg/mL (≈ 34.6 µM) | MIC [2, 18]: 32 µg/mL (≈ 69.2 µM) | MIC ([3]; read-out: MIC): 64 µg/mL (≈ 138 µM) | MIC (Enterobacter cloacae EB5; read-out: MIC): 64 µg/mL (≈ 138 µM) | MIC ([4]; read-out: MIC): 8 µg/mL (≈ 17.3 µM) | MIC (Enterococcus faecium X66; read-out: MIC): 16 µg/mL (≈ 34.6 µM) | MIC (Escherichia coli EC14; read-out: MIC): 4 µg/mL (≈ 8.65 µM) | MIC (Escherichia coli N10; read-out: MIC): 8 µg/mL (≈ 17.3 µM) | MIC (Escherichia coli TEM; read-out: MIC): 4 µg/mL (≈ 8.65 µM) | MIC ([5]; read-out: MIC): 1 µg/mL (≈ 2.16 µM) | MIC ([6]; read-out: MIC): 0.5 µg/mL (≈ 1.08 µM) | MIC ([7]; read-out: MIC): 16 µg/mL (≈ 34.6 µM) | MIC ([8]; read-out: MIC): 0.25 µg/mL (≈ 0.541 µM) | MIC ([9]; read-out: MIC): 4 µg/mL (≈ 8.65 µM) | MIC (Morg morg PR15; read-out: MIC): 16 µg/mL (≈ 34.6 µM) | MIC (Proteus incon PR33; read-out: MIC): 8 µg/mL (≈ 17.3 µM) | MIC (Proteus rett C24): 128 µg/mL (≈ 277 µM) | MIC (Salmonella 1335; read-out: MIC): 16 µg/mL (≈ 34.6 µM) | MIC (Salmonella X514; read-out: MIC): 4 µg/mL (≈ 8.65 µM) | MIC (Serratia SE3): > 128 µg/mL | MIC (Serratia X99; read-out: MIC): 64 µg/mL (≈ 138 µM) | MIC ([10]; NRRLX1.1, read-out: MIC): 1 µg/mL (≈ 2.16 µM) | MIC [11]: 8 µg/mL (≈ 17.3 µM) | MIC ([12]; read-out: MIC): 4 µg/mL (≈ 8.65 µM) | MIC ([13]; read-out: MIC): 16 µg/mL (≈ 34.6 µM) | MIC ([14]; read-out: MIC): 1 µg/mL (≈ 2.16 µM) | MIC ([15]; read-out: MIC): 1 µg/mL (≈ 2.16 µM) | MIC ([16]; PARK1, read-out: MIC): 0.125 µg/mL (≈ 0.27 µM) | MIC ([17]; read-out: MIC): 0.125 µg/mL (≈ 0.27 µM)
